Source: US20190125888A1, “TARGETED CONJUGATES AND PARTICLES AND FORMULATIONS THEREOF” (priority 2015, published 2019)
Read-outs that look alike come from different tables or passages of the source.

How the values were obtained:
[1] = Ligand charge of maytansinoid conjugates; assay type: physicochemical
[2] = test system: NCI-H524 (ATCC) human lung cancer cells; assay type: cell-based
Method: FIG. 1 is a graph of various conjugates represented as bars and showing on the Y-axis their activity in an H524 proliferation assay with and without competition by octreotide. […] This illustrates the suprprising finding that only maytansinoid conjugates show activity that is dependent on the receptor.
Conjugates were assessed in an in vitro assay evaluating inhibition of cell proliferation. NCI-H524 (ATCC) human lung cancer cells were plated in 96 well, V-bottomed plates (Costar) at a concentration of 5,000 cells/well and 24 hours later were treated with compound for 6 hours and further incubated 66 hours. Compound starting dose was 20 μM and three fold serial dilutions were done for a total of ten points. After 6 hours of treatment, cells were spun down, the drug containing media was removed, and fresh complete medium was added and used to resuspend the cells, which were spun again. After removal of the wash media, the cells were resuspended in complete medium, then transferred into white walled, flat bottomed 96 well plates. […] Proliferation was measured using CellTiter Glo reagent using the standard protocol (Promega) and a Glomax multi+detection system (Promega). Percent proliferation inhibition was calculated using the following formula: % inhibition=(control-treatment)/control*100. Control is defined as vehicle alone. IC50 curves were generated using the nonlinear regression analysis (four parameter) with GraphPad Prism 6.
Conjugates were tested for their activity dependence on the somatostatin receptor. Active agent Z in the conjugate was selected from auristatin, carbazitaxel, DM1, doxorubicin, platinum, SN-38 and vinblastine. Active agent Z is connected to octreotide with various linkers. Proliferation IC50 values of the conjugates were measured. Proliferation IC50 values of the conjugates without octreotide competition were also measured. The ratio of IC50 with octreotide competition and IC50 without octreotide competition is an indicator of whether activity is at least particially dependent on bind to the somatostatin receptor. […] Therefore, the activity of conjugates comprising DM1 is dependent on the binding to the somatostatin receptor.

[3] = read-out: H524 IC50 6 h, 6 hours treatment, further 66 hours incubation
[4] = read-out: H524 IC50 with 100 μM octreotide 6 h, with 100 μM octreotide competition, 6 h treatment

Row | Compound | Ligand charge [1] | IC50 [2, 3] [nM] | IC50 [2, 4] [nM] | effect on cell proliferation ([2]; octreotide alone)
1 | CCCC(=O)N[C@H](Cc1ccccc1)C(=O)N[C@H]1CSSC[C@@H](C(=O)N[C@H](C(=O)NCCSSC(C)(C)CCC(=O)N(C)[C@@H](C)C(=O)O[C@H]2CC(=O)N(C)c3cc(cc(OC)c3Cl)C/C(C)=C/C=C/[C@@H](OC)[C@@]3(O)C[C@H](OC(=O)N3)[C@@H](C)[C@@H]3O[C@@]23C)[C@@H](C)O)NC(=O)[C@H]([C@@H](C)O)NC(=O)[C@H](CCCCN)NC(=O)[C@@H](Cc2c[nH]c3ccccc23)NC(=O)[C@H](Cc2ccc(O)cc2)NC1=O [Conjugate 3] | +1 | – | – | –
2 | CCNC(=O)N[C@H](Cc1ccccc1)C(=O)N[C@H]1CSSC[C@@H](C(=O)N[C@H](C(=O)N[C@H](C(N)=O)C(C)(C)SSCCC(=O)N(C)[C@@H](C)C(=O)O[C@H]2CC(=O)N(C)c3cc(cc(OC)c3Cl)C/C(C)=C/C=C/[C@@H](OC)[C@@]3(O)C[C@H](OC(=O)N3)[C@@H](C)[C@@H]3O[C@@]23C)[C@@H](C)O)NC(=O)[C@H]([C@@H](C)O)NC(=O)[C@H](CCCCN)NC(=O)[C@@H](Cc2c[nH]c3ccccc23)NC(=O)[C@H](Cc2ccc(O)cc2)NC1=O [Conjugate 16] | +1 | 185 | 516 | –
3 | COc1cc2cc(c1Cl)N(C)C(=O)C[C@H](OC(=O)[C@H](C)N(C)C(=O)CCSSC(C)(C)[C@H](NC(=O)[C@@H](NC(=O)[C@@H]1CSSC[C@H](NC(=O)[C@@H](Cc3ccccc3)NCc3ccccc3)C(=O)N[C@@H](Cc3ccc(O)cc3)C(=O)N[C@H](Cc3c[nH]c4ccccc34)C(=O)N[C@@H](CCCCN)C(=O)N[C@@H]([C@@H](C)O)C(=O)N1)[C@@H](C)O)C(N)=O)[C@]1(C)O[C@H]1[C@H](C)[C@@H]1C[C@@](O)(NC(=O)O1)[C@H](OC)/C=C/C=C(\C)C2 [Conjugate 17] | +2 | 8.5 | 48 | –
4 | COc1cc2cc(c1Cl)N(C)C(=O)C[C@H](OC(=O)[C@H](C)N(C)C(=O)CCSC1CC(=O)N(CCCCCNC(=O)[C@@H](NC(=O)[C@@H]3CSSC[C@H](NC(=O)[C@@H](Cc4ccccc4)NC(=O)NC4CCCCC4)C(=O)N[C@@H](Cc4ccc(O)cc4)C(=O)N[C@H](Cc4c[nH]c5ccccc45)C(=O)N[C@@H](CCCCN)C(=O)N[C@@H]([C@@H](C)O)C(=O)N3)[C@@H](C)O)C1=O)[C@]1(C)O[C@H]1[C@H](C)[C@@H]1C[C@@](O)(NC(=O)O1)[C@H](OC)/C=C/C=C(\C)C2 (some centres unmarked) [Conjugate 22] | +1 | 2.6 | 94 | –
5 | CCNC(=O)N[C@H](Cc1ccccc1)C(=O)N[C@H]1CSSC[C@@H](C(=O)N[C@H](C(=O)NCCCCCN2C(=O)CC(SCCC(=O)N(C)[C@@H](C)C(=O)O[C@H]3CC(=O)N(C)c4cc(cc(OC)c4Cl)C/C(C)=C/C=C/[C@@H](OC)[C@@]4(O)C[C@H](OC(=O)N4)[C@@H](C)[C@@H]4O[C@@]34C)C2=O)[C@@H](C)O)NC(=O)[C@H]([C@@H](C)O)NC(=O)[C@H](CCCCN)NC(=O)[C@@H](Cc2c[nH]c3ccccc23)NC(=O)[C@H](Cc2ccc(O)cc2)NC1=O (some centres unmarked) [Conjugate 23] | +1 | 5 | 124 | –
6 | CCNC(=O)N[C@H](Cc1ccccc1)C(=O)N[C@H]1CSSC[C@@H](C(=O)N[C@H](C(=O)N2CCCCC2)C(C)(C)SSCCC(=O)N(C)[C@@H](C)C(=O)O[C@H]2CC(=O)N(C)c3cc(cc(OC)c3Cl)C/C(C)=C/C=C/[C@@H](OC)[C@@]3(O)C[C@H](OC(=O)N3)[C@@H](C)[C@@H]3O[C@@]23C)NC(=O)[C@H]([C@@H](C)O)NC(=O)[C@H](CCCCN)NC(=O)[C@@H](Cc2c[nH]c3ccccc23)NC(=O)[C@H](Cc2ccc(O)cc2)NC1=O [Conjugate 33] | +1 | 265 | 462 | –
7 | C[C@@H](O)[C@@H]1NC(=O)[C@H](CCCCN)NC(=O)[C@@H](Cc2c[nH]c3ccccc23)NC(=O)[C@H](Cc2ccccc2)NC(=O)[C@@H](NC(=O)[C@H](N)Cc2ccccc2)CSSC[C@@H](C(=O)N[C@H](CO)[C@@H](C)O)NC1=O [Octreotide, H2N-D-Phe-Cys-Phe-D-Trp-Lys-Thr-Cys-Thr-ol (disulfide bridge Cys2-Cys7), reference compound] | – | – | – | no significant effect
